The source made the active and inactive calls. The calls are words filed in the database; no cut-off is given here.
Key:
Type in all cases: cell-based
[1] = system: HeLa; assay: Activation of HIF-1 transcriptional activity in human HeLa cells transfected with 5xHRE-Luc/UCHL1 reporter at 0.1 to 1000 ng/ml preincubated for 1 hr under normoxic condition followed by 24 hrs incubation under hypoxic condition by luciferase reporter assay; conditions: filed as activator, dose 0.1-1000 ng/ml, time 25.0 hrs
[2] = system: HeLa S3; assay: Activation of HIF-1 in human HeLa S3 cells assessed as increase in VEGF mRNA level at 10 ng/ml preincubated for 1 hr under normoxic condition followed by 6 hrs incubation under hypoxic condition by real-time quantitative PCR analysis; conditions: filed as activator, time 7.0 hrs
[3] = system: HeLa S3; assay: Activation of HIF-1 in human HeLa S3 cells assessed as increase in HIF-1alpha protein level at 10 ng/ml preincubated for 1 hr under normoxic condition followed by 12 hrs incubation under hypoxic condition by Western blotting analysis; conditions: filed as activator, time 13.0 hrs
[4] = system: HeLa S3; assay: Activation of HIF-1 in human HeLa S3 cells assessed as increase in HIF-1alpha protein level at 10 ng/ml pretreated with MG132 for 1 hr followed by 12 hrs incubation under normoxic condition by Western blotting analysis; conditions: filed as activator
[5] = system: HeLa; assay: Activation of HIF-1 transcriptional activity in human HeLa cells transfected with 5xHRE-Luc/UCHL1 reporter at 10 ng/ml pretreated with Go6976 for 1 hr followed by 24 hrs incubation under hypoxic condition by luciferase reporter assay
[6] = system: HeLa; assay: Activation of HIF-1 transcriptional activity in human HeLa cells transfected with 5xHRE-Luc/UCHL1 reporter and PKCalpha siRNA at 10 ng/ml incubated for 24 hrs under hypoxia condition by luciferase reporter assay
[7] = system: HeLa; assay: Activation of HIF-1 transcriptional activity in human HeLa cells transfected with 5xHRE-Luc/UCHL1 reporter and PKCdelta siRNA at 10 ng/ml incubated for 24 hrs under hypoxia condition by luciferase reporter assay; conditions: filed as activator
[8] = system: HeLa S3; assay: Activation of HIF-1 transcriptional activity in human HeLa S3 cells transfected with 5xHRE-Luc/UCHL1 reporter and PKCalpha siRNA assessed as upregulation of HIF-1alpha protein level at 10 ng/ml incubated for 12 hrs under hypoxia condition by Western blotting assay
[9] = system: HeLa S3; assay: Activation of PKCalpha/mTORC pathway in human HeLa S3 cells assessed as accumulation of phosphorylated ribosomal protein S6 at 10 ng/ml incubated for 12 hrs under hypoxia condition by Western blotting analysis; conditions: filed as activator
[10] = system: HeLa S3; assay: Activation of PKCalpha/mTORC pathway in human HeLa S3 cells transfected with PKCalpha siRNA assessed as accumulation of phosphorylated ribosomal protein S6 at 10 ng/ml incubated for 12 hrs under hypoxia condition by Western blotting analysis
[11] = system: HeLa S3; assay: Activation of PKCdelta/mTORC pathway in human HeLa S3 cells transfected with PKCdelta siRNA assessed as accumulation of phosphorylated ribosomal protein S6 at 10 ng/ml incubated for 12 hrs under hypoxia condition by Western blotting analysis; conditions: filed as activator
[12] = system: HeLa S3; assay: Activation of HIF-1 in human HeLa S3 cells assessed as increase in HIF-1alpha protein level at 10 ng/ml pretreated with Go6983 for 1 hr followed by 12 hrs incubation under hypoxic condition by Western blotting analysis
[13] = system: HeLa S3; assay: Activation of HIF-1 in human HeLa S3 cells assessed as increase in VEGF mRNA level at 10 ng/ml pretreated with Go6983 for 1 hr followed by 6 hrs incubation under hypoxic condition by real-time quantitative PCR analysis
[14] = system: HeLa; assay: Activation of HIF-1 transcriptional activity in human HeLa cells transfected with 5xHRE-Luc/UCHL1 reporter at 0.1 to 100 ng/ml pretreated with Go6983 for 1 hr followed by 24 hrs incubation under hypoxic condition by luciferase reporter assay; conditions: dose 0.1-100 ng/ml
[15] = system: HeLa S3; assay: Activation of HIF-1 in human HeLa S3 cells assessed as increase in VEGF mRNA level at 0.1 to 10 ng/ml preincubated for 1 hr under normoxic condition followed by 6 hrs incubation under hypoxic condition by real-time quantitative PCR analysis; conditions: filed as activator, dose 0.1-10 ng/ml, time 7.0 hrs
[16] = system: HeLa S3; assay: Activation of HIF-1 in human HeLa S3 cells assessed as increase in HIF-1alpha protein level at 0.1 to 10 ng/ml preincubated for 1 hr under normoxic condition followed by 12 hrs incubation under hypoxic condition by Western blotting analysis; conditions: filed as activator, dose 0.1-10 ng/ml, time 13.0 hrs
[17] = system: HeLa; assay: Activation of HIF-1 transcriptional activity in human HeLa cells transfected with 5xHRE-Luc/UCHL1 reporter at 10 ng/ml pretreated with torin1 for 1 hr followed by 24 hrs incubation under hypoxia condition by luciferase reporter assay
[18] = system: HeLa; assay: Activation of HIF-1 transcriptional activity in human HeLa cells transfected with 5xHRE-Luc/UCHL1 reporter at 0.1 to 10 uM preincubated for 1 hr under normoxic condition followed by 24 hrs incubation under hypoxic condition by luciferase reporter assay; conditions: filed as activator, dose 0.1-10 µM, time 25.0 hrs

Compound	Activity [1]	Activity [2]	Activity [3]	Activity [4]	Activity [5]	Activity [6]	Activity [7]	Activity [8]	Activity [9]	Activity [10]	Activity [11]	Activity [12]	Activity [13]	Activity [14]	Activity [15]	Activity [16]	Activity [17]	Activity [18]
CCCCCCCCCCCCCC(=O)O[C@@H]1[C@@H](C)[C@@]2(O)[C@@H](C=C(CO)C[C@]3(O)C(=O)C(C)=C[C@@H]23)[C@@H]2C(C)(C)[C@]12OC(C)=O	Active	Active	Active	Active	inactive	inactive	Active	inactive	Active	inactive	Active	–	–	–	–	–	–	–
C=C[C@@]1(C)CC[C@](C)(C(C)C)c2cc3c4c(c[nH]c4c21)C[C@@H](CO)NC(=O)[C@H](C(C)C)N3C	Active	–	–	Active	inactive	inactive	Active	inactive	Active	inactive	Active	inactive	inactive	inactive	Active	Active	inactive	–
C[C@H]1[C@@H]2C[C@@]3(O[C@H](CCC3(C)C)CC(=O)O[C@@H](CO)CC(=O)O2)O[C@@H]1CCCCc1cccc(O)c1	–	–	–	–	–	–	–	–	–	–	–	–	–	–	–	–	–	Active

— ChEMBL document CHEMBL5537209, “Teleocidin B-4, a PKC Activator, Upregulates Hypoxia-Inducible Factor 1 (HIF-1) Activity by Promoting the Accumulation of HIF-1α Protein via the PKCα/mTORC Signaling Pathway” (J Nat Prod, 2024)
